{"source": "the kinase profiling compilation of Christmann-Franck et al. (2016)", "settings_in_all_cases": "compound 10.0 µM", "key": {"BMP2K (human)": {"biological_target": "BMP2K (human) (UniProt Q9NSY1)", "sequence (Q9NSY1 whole entry, looked up)": "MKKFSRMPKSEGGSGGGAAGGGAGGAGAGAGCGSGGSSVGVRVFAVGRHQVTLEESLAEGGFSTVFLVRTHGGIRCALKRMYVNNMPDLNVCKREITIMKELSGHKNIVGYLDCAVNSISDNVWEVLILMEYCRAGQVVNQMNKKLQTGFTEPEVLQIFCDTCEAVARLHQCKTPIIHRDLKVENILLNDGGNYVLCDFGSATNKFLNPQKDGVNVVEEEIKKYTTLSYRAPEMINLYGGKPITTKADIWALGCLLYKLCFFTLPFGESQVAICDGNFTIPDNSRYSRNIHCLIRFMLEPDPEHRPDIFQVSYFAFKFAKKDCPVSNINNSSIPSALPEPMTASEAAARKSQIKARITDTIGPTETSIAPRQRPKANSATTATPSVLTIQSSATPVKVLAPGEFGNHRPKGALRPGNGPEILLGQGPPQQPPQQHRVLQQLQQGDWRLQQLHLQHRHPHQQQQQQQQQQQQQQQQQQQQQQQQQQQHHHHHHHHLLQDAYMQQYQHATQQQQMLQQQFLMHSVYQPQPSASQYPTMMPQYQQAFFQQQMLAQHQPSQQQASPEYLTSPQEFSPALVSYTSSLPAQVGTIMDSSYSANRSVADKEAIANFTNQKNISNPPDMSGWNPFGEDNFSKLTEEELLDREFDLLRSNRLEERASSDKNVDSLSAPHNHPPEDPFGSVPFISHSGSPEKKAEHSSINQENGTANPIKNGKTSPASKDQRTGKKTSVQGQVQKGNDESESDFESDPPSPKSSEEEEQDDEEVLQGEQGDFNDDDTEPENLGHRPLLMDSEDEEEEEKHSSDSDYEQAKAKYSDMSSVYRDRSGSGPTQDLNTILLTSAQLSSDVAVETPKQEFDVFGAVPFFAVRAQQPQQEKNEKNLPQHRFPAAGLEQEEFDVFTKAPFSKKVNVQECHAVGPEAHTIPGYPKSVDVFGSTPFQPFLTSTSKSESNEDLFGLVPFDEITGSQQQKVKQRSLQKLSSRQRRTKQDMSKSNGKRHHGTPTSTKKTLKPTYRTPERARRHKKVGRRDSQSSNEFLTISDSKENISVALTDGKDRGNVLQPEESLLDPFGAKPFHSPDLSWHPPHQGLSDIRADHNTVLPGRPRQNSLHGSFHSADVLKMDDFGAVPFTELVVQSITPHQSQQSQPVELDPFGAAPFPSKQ"}, "SBK1 (human)": {"biological_target": "SBK1 (human) (UniProt Q52WX2)"}, "NEK3 (human)": {"biological_target": "NEK3 (human) (UniProt P51956)"}, "[1]": {"system": "FLT3 (human), P36888 [D835H]"}, "DCLK1 (human)": {"biological_target": "DCLK1 (human) (UniProt O15075)"}, "[2]": {"biological_target": "TYK2 JH1 catalytic (human) (UniProt P29597)"}, "CSNK1D (human)": {"biological_target": "CSNK1D (human) (UniProt P48730)", "sequence (P48730 whole entry, looked up)": "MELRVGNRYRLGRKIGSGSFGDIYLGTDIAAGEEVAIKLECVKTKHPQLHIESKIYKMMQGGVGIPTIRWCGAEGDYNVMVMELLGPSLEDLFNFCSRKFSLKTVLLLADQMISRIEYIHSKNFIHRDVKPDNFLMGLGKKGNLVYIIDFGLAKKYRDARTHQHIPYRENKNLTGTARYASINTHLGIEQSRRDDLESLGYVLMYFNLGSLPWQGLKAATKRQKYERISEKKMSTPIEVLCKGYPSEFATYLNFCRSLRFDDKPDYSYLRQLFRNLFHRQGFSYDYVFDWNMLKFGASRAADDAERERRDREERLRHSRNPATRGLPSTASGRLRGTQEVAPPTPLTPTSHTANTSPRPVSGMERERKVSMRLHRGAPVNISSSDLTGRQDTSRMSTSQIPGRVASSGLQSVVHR"}, "STK16 (human)": {"biological_target": "STK16 (human) (UniProt O75716)"}, "CDK4 CCND3 (human)": {"biological_target": "CDK4 CCND3 (human) (UniProt P11802+P30281)"}, "BMPR1A (human)": {"biological_target": "BMPR1A (human) (UniProt P36894)"}, "MATK (human)": {"biological_target": "MATK (human) (UniProt P42679)"}, "LIMK2 (human)": {"biological_target": "LIMK2 (human) (UniProt P53671)"}, "[3]": {"system": "KIT (human), P10721 [V559D/T670I]"}, "EPHA3 (human)": {"biological_target": "EPHA3 (human) (UniProt P29320)"}, "BMX (human)": {"biological_target": "BMX (human) (UniProt P51813)"}, "MYLK (human)": {"biological_target": "MYLK (human) (UniProt Q15746)"}, "PDPK1 (human)": {"biological_target": "PDPK1 (human) (UniProt O15530)", "sequence (O15530 whole entry, looked up)": "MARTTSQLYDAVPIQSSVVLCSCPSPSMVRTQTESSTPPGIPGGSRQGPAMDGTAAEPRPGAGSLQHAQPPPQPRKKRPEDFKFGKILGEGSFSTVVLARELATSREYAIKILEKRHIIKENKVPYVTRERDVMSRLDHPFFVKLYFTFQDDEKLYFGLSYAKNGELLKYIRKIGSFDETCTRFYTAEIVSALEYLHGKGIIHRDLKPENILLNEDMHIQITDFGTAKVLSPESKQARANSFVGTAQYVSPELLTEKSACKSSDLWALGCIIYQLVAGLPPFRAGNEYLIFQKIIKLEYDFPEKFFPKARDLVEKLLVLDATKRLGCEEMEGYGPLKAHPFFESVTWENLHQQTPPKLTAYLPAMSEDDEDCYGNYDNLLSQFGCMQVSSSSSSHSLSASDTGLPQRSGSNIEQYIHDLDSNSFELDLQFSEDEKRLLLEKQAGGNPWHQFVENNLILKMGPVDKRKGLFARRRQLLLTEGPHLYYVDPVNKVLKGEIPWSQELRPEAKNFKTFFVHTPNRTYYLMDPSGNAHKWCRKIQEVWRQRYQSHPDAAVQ"}, "MLTK (human)": {"biological_target": "MLTK (human) (UniProt Q9NYL2)"}, "DDR1 (human)": {"biological_target": "DDR1 (human) (UniProt Q08345)"}, "MAP4K5 (human)": {"biological_target": "MAP4K5 (human) (UniProt Q9Y4K4)"}, "[4]": {"system": "MET (human), P08581 [M1250T]"}, "MAP2K2 (human)": {"biological_target": "MAP2K2 (human) (UniProt P36507)", "sequence (P36507 whole entry, looked up)": "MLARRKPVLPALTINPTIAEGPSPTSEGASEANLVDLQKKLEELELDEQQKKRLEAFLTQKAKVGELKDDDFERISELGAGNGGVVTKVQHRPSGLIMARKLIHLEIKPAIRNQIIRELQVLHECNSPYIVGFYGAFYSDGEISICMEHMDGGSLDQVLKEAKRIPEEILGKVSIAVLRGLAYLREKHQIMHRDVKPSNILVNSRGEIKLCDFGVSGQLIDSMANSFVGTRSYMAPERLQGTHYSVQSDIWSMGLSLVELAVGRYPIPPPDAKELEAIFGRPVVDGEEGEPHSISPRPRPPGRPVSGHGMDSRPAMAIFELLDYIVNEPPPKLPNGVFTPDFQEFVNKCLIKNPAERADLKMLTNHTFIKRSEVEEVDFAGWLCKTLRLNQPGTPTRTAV"}, "RPS6KA6 KD2 (human)": {"biological_target": "RPS6KA6 KD2 (human) (UniProt Q9UK32)", "sequence (Q9UK32 whole entry, looked up)": "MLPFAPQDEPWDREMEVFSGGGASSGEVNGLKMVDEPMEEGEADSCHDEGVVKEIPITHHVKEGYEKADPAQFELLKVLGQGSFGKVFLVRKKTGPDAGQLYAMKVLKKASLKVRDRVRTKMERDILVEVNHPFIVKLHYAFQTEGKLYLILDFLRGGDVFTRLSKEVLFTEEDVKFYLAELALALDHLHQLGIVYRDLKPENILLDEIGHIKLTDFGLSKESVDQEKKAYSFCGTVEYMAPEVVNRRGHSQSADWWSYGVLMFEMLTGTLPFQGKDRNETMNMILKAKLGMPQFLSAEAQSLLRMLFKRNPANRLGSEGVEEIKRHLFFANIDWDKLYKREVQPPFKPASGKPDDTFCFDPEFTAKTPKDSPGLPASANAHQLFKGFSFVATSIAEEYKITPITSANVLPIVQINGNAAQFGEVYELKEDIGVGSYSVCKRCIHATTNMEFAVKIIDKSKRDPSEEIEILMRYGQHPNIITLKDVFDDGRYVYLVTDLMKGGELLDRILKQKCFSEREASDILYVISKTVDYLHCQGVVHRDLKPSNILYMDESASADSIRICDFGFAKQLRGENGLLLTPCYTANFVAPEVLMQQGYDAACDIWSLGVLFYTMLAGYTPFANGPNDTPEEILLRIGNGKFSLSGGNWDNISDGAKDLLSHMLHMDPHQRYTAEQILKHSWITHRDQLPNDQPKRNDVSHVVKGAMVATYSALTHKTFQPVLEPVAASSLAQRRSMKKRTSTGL"}, "PRKX (human)": {"biological_target": "PRKX (human) (UniProt P51817)"}, "PHKG2 (human)": {"biological_target": "PHKG2 (human) (UniProt P15735)"}, "TNNI3K (human)": {"biological_target": "TNNI3K (human) (UniProt Q59H18)"}, "MAP2K3 (human)": {"biological_target": "MAP2K3 (human) (UniProt P46734)", "sequence (P46734 whole entry, looked up)": "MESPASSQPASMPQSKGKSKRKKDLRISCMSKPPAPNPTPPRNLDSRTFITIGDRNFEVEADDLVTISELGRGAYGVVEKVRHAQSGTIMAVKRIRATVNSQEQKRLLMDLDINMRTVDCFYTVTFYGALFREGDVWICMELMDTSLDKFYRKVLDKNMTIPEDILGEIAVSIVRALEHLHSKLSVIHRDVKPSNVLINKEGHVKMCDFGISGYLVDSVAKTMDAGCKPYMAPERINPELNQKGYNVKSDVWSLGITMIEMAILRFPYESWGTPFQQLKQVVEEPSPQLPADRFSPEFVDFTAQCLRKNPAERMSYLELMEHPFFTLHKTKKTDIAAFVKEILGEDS"}, "PIP5K1A (human)": {"biological_target": "PIP5K1A (human) (UniProt Q99755)"}, "ACVR2A (human)": {"biological_target": "ACVR2A (human) (UniProt P27037)"}, "CAMKK2 (human)": {"biological_target": "CAMKK2 (human) (UniProt Q96RR4)"}, "ULK3 (human)": {"biological_target": "ULK3 (human) (UniProt Q6PHR2)", "sequence (Q6PHR2 whole entry, looked up)": "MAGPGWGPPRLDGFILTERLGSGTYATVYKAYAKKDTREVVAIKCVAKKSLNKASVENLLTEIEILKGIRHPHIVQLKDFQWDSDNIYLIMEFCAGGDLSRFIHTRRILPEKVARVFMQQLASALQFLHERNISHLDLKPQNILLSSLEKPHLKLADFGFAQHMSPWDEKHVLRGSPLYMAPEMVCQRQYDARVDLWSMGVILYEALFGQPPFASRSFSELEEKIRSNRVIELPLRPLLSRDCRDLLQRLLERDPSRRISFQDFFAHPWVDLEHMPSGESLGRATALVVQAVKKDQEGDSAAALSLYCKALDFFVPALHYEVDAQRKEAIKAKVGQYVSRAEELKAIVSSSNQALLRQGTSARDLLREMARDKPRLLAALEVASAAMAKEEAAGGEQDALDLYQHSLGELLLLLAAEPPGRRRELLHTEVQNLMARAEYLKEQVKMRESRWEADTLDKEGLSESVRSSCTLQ"}, "STK10 (human)": {"biological_target": "STK10 (human) (UniProt O94804)"}, "RIOK3 (human)": {"biological_target": "RIOK3 (human) (UniProt O14730)"}, "TAOK3 (human)": {"biological_target": "TAOK3 (human) (UniProt Q9H2K8)", "sequence (Q9H2K8 whole entry, looked up)": "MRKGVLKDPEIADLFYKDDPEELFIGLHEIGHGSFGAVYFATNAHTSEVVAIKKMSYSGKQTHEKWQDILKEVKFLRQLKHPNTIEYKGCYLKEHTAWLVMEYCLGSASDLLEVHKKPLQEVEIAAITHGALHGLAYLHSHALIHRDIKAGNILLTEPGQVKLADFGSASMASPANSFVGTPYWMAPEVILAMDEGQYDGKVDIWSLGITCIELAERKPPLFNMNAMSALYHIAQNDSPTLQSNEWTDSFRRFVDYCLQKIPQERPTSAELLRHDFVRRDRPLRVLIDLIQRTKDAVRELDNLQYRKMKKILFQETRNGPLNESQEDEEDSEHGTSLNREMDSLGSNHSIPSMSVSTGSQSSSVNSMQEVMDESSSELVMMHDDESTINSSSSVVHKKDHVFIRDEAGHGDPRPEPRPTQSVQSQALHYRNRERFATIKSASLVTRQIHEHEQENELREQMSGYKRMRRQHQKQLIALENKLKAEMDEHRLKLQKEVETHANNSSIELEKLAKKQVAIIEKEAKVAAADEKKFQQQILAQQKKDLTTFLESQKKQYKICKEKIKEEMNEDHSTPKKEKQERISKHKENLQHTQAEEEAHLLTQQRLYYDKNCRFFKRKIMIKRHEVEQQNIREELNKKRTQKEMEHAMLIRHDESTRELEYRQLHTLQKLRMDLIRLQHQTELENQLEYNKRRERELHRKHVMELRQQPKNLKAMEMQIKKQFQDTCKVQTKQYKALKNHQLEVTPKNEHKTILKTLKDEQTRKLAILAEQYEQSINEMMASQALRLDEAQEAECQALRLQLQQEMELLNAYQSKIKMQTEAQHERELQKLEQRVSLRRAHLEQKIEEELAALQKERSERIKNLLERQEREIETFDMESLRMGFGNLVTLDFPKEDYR"}, "PLK2 (human)": {"biological_target": "PLK2 (human) (UniProt Q9NYY3)"}, "PAK6 (human)": {"biological_target": "PAK6 (human) (UniProt Q9NQU5)"}, "ULK1 (human)": {"biological_target": "ULK1 (human) (UniProt O75385)"}, "PRKCQ (human)": {"biological_target": "PRKCQ (human) (UniProt Q04759)"}, "NEK7 (human)": {"biological_target": "NEK7 (human) (UniProt Q8TDX7)"}, "RPS6KA2 KD1 (human)": {"biological_target": "RPS6KA2 KD1 (human) (UniProt Q15349)"}, "MAP4K3 (human)": {"biological_target": "MAP4K3 (human) (UniProt Q8IVH8)"}}}
{"smiles": "CNC(=O)c1cc(Oc2ccc(NC(=O)Nc3ccc(Cl)c(C(F)(F)F)c3)cc2)ccn1", "values": [{"measurement": "per cent of control", "setting": "BMP2K (human)", "result": 65, "unit": "%"}, {"measurement": "per cent of control", "setting": "SBK1 (human)", "result": 100, "unit": "%"}, {"measurement": "per cent of control", "setting": "NEK3 (human)", "result": 100, "unit": "%"}, {"measurement": "per cent of control", "setting": "[1]", "result": 0.45, "unit": "%"}, {"measurement": "per cent of control", "setting": "DCLK1 (human)", "result": 62, "unit": "%"}, {"measurement": "per cent of control", "setting": "[2]", "result": 100, "unit": "%"}, {"measurement": "per cent of control", "setting": "CSNK1D (human)", "result": 84, "unit": "%"}, {"measurement": "per cent of control", "setting": "STK16 (human)", "result": 94, "unit": "%"}, {"measurement": "per cent of control", "setting": "CDK4 CCND3 (human)", "result": 100, "unit": "%"}, {"measurement": "per cent of control", "setting": "BMPR1A (human)", "result": 100, "unit": "%"}, {"measurement": "per cent of control", "setting": "MATK (human)", "result": 64, "unit": "%"}, {"measurement": "per cent of control", "setting": "LIMK2 (human)", "result": 53, "unit": "%"}, {"measurement": "per cent of control", "setting": "[3]", "result": 0, "unit": "%"}, {"measurement": "per cent of control", "setting": "EPHA3 (human)", "result": 4, "unit": "%"}, {"measurement": "per cent of control", "setting": "BMX (human)", "result": 94, "unit": "%"}, {"measurement": "per cent of control", "setting": "MYLK (human)", "result": 100, "unit": "%"}, {"measurement": "per cent of control", "setting": "PDPK1 (human)", "result": 94, "unit": "%"}, {"measurement": "per cent of control", "setting": "MLTK (human)", "result": 0.6, "unit": "%"}, {"measurement": "per cent of control", "setting": "DDR1 (human)", "result": 0, "unit": "%"}, {"measurement": "per cent of control", "setting": "MAP4K5 (human)", "result": 1.5, "unit": "%"}, {"measurement": "per cent of control", "setting": "[4]", "result": 86, "unit": "%"}, {"measurement": "per cent of control", "setting": "MAP2K2 (human)", "result": 88, "unit": "%"}, {"measurement": "per cent of control", "setting": "RPS6KA6 KD2 (human)", "result": 16, "unit": "%"}, {"measurement": "per cent of control", "setting": "PRKX (human)", "result": 98, "unit": "%"}, {"measurement": "per cent of control", "setting": "PHKG2 (human)", "result": 100, "unit": "%"}, {"measurement": "per cent of control", "setting": "TNNI3K (human)", "result": 2.4, "unit": "%"}, {"measurement": "per cent of control", "setting": "MAP2K3 (human)", "result": 93, "unit": "%"}, {"measurement": "per cent of control", "setting": "PIP5K1A (human)", "result": 100, "unit": "%"}, {"measurement": "per cent of control", "setting": "ACVR2A (human)", "result": 100, "unit": "%"}, {"measurement": "per cent of control", "setting": "CAMKK2 (human)", "result": 100, "unit": "%"}, {"measurement": "per cent of control", "setting": "ULK3 (human)", "result": 100, "unit": "%"}, {"measurement": "per cent of control", "setting": "STK10 (human)", "result": 0, "unit": "%"}, {"measurement": "per cent of control", "setting": "RIOK3 (human)", "result": 88, "unit": "%"}, {"measurement": "per cent of control", "setting": "TAOK3 (human)", "result": 0.65, "unit": "%"}, {"measurement": "per cent of control", "setting": "PLK2 (human)", "result": 100, "unit": "%"}, {"measurement": "per cent of control", "setting": "PAK6 (human)", "result": 86, "unit": "%"}, {"measurement": "per cent of control", "setting": "ULK1 (human)", "result": 89, "unit": "%"}, {"measurement": "per cent of control", "setting": "PRKCQ (human)", "result": 76, "unit": "%"}, {"measurement": "per cent of control", "setting": "NEK7 (human)", "result": 100, "unit": "%"}, {"measurement": "per cent of control", "setting": "RPS6KA2 KD1 (human)", "result": 61, "unit": "%"}, {"measurement": "per cent of control", "setting": "MAP4K3 (human)", "result": 48, "unit": "%"}]}
{"smiles": "CNC(=O)c1cc(Oc2ccc(NC(=O)Nc3ccc(Cl)c(C(F)(F)F)c3)cc2)cc[n+]1[O-]", "values": [{"measurement": "per cent of control", "setting": "BMP2K (human)", "result": 100, "unit": "%"}, {"measurement": "per cent of control", "setting": "SBK1 (human)", "result": 100, "unit": "%"}, {"measurement": "per cent of control", "setting": "NEK3 (human)", "result": 100, "unit": "%"}, {"measurement": "per cent of control", "setting": "[1]", "result": 0.7, "unit": "%"}, {"measurement": "per cent of control", "setting": "DCLK1 (human)", "result": 53, "unit": "%"}, {"measurement": "per cent of control", "setting": "[2]", "result": 100, "unit": "%"}, {"measurement": "per cent of control", "setting": "CSNK1D (human)", "result": 91, "unit": "%"}, {"measurement": "per cent of control", "setting": "STK16 (human)", "result": 81, "unit": "%"}, {"measurement": "per cent of control", "setting": "CDK4 CCND3 (human)", "result": 62, "unit": "%"}, {"measurement": "per cent of control", "setting": "BMPR1A (human)", "result": 91, "unit": "%"}, {"measurement": "per cent of control", "setting": "MATK (human)", "result": 62, "unit": "%"}, {"measurement": "per cent of control", "setting": "LIMK2 (human)", "result": 59, "unit": "%"}, {"measurement": "per cent of control", "setting": "[3]", "result": 0, "unit": "%"}, {"measurement": "per cent of control", "setting": "EPHA3 (human)", "result": 4, "unit": "%"}, {"measurement": "per cent of control", "setting": "BMX (human)", "result": 67, "unit": "%"}, {"measurement": "per cent of control", "setting": "MYLK (human)", "result": 100, "unit": "%"}, {"measurement": "per cent of control", "setting": "PDPK1 (human)", "result": 94, "unit": "%"}, {"measurement": "per cent of control", "setting": "MLTK (human)", "result": 0.85, "unit": "%"}, {"measurement": "per cent of control", "setting": "DDR1 (human)", "result": 0.05, "unit": "%"}, {"measurement": "per cent of control", "setting": "MAP4K5 (human)", "result": 0.45, "unit": "%"}, {"measurement": "per cent of control", "setting": "[4]", "result": 16, "unit": "%"}, {"measurement": "per cent of control", "setting": "MAP2K2 (human)", "result": 84, "unit": "%"}, {"measurement": "per cent of control", "setting": "RPS6KA6 KD2 (human)", "result": 6.4, "unit": "%"}, {"measurement": "per cent of control", "setting": "PRKX (human)", "result": 100, "unit": "%"}, {"measurement": "per cent of control", "setting": "PHKG2 (human)", "result": 100, "unit": "%"}, {"measurement": "per cent of control", "setting": "TNNI3K (human)", "result": 2.4, "unit": "%"}, {"measurement": "per cent of control", "setting": "MAP2K3 (human)", "result": 71, "unit": "%"}, {"measurement": "per cent of control", "setting": "PIP5K1A (human)", "result": 100, "unit": "%"}, {"measurement": "per cent of control", "setting": "ACVR2A (human)", "result": 89, "unit": "%"}, {"measurement": "per cent of control", "setting": "CAMKK2 (human)", "result": 68, "unit": "%"}, {"measurement": "per cent of control", "setting": "ULK3 (human)", "result": 82, "unit": "%"}, {"measurement": "per cent of control", "setting": "STK10 (human)", "result": 0, "unit": "%"}, {"measurement": "per cent of control", "setting": "RIOK3 (human)", "result": 73, "unit": "%"}, {"measurement": "per cent of control", "setting": "TAOK3 (human)", "result": 0.4, "unit": "%"}, {"measurement": "per cent of control", "setting": "PLK2 (human)", "result": 77, "unit": "%"}, {"measurement": "per cent of control", "setting": "PAK6 (human)", "result": 82, "unit": "%"}, {"measurement": "per cent of control", "setting": "ULK1 (human)", "result": 99, "unit": "%"}, {"measurement": "per cent of control", "setting": "PRKCQ (human)", "result": 80, "unit": "%"}, {"measurement": "per cent of control", "setting": "NEK7 (human)", "result": 100, "unit": "%"}, {"measurement": "per cent of control", "setting": "RPS6KA2 KD1 (human)", "result": 43, "unit": "%"}, {"measurement": "per cent of control", "setting": "MAP4K3 (human)", "result": 12, "unit": "%"}]}
